According to PMC4313117, “Elabela-Apelin Receptor Signaling Pathway is Functional in Mammalian Systems” (Scientific Reports, 2015):

Assays:
[1] = tested on: HUVECs; experiment: In vitro angiogenesis (tubular formation) assay in HUVECs; format: cell-based, human; conditions: for increase in number of branch points: HUVECs on Geltrex, counted after 10 hr; for increase in number of branch points / increase in tubular formation, APJ-overexpressing HUVECs: n = 5
Source text: ELA is a secreted hormone and expressed in adult kidney and prostate, and may, therefore, circulate in blood. Since ELA is required for normal development of cardiovascular system, blood vessel could be a target of ELA action. Vascular tube formation assay is a well-used in vitro study to assess angiogenic factors and conditions in which vascular cells, [e.g. human umbilical vascular endothelial cells (HUVECs)], can form tube-like structures under pro-angiogenic conditions in culture wells coated with Geltrex containing extra-cellular matrix. The number of branch points is used as an indicator for the strength of angiogenic stimuli.
Figure 4 Stimulation of tubule-like structure by ELA-APJ signaling. […] (B), Reverse transcription PCR of human APJ expression of HUVECs infected with APJ or APJ siRNA lentiviral constructs.
Tubular formation assay for angiogenesis was conducted in 96-well plates which were coated with 50 μl of Geltrex (Life Technologies, A14133-02) and left for polymerization by incubation for 1 hr at 37°C. […] Quantification of the tubular formation was performed after 10 hr of culture by calculating the number of branching point formed in each well under an inverted phase contrast photomicroscope (Olympus IX50), as described.

[2] = tested on: mouse aortic rings; experiment: Vasorelaxation of U46619-contracted mouse aortic rings; parameters: species or system mouse (C57BL/6)
Source text: Changes in tension were expressed as the percentage decrease in reference to precontraction tension. […] Values are means ± SEM. (n = 5–10). **p < 0.01, compared to aortas with endothelium at the same concentration points of the compound.
Aortas were isolated from 8–10 weeks male wild-type C57BL/6 mice, cut into 3-mm rings and mounted in organ chambers (PowerLab, AD Instruments, CO, USA) in Kreb's buffer as described previously. The contractile response was elicited by vasoconstrictor U46619 (30 nM) to produce contraction. […] In some preparations, the endothelium was mechanically removed from denuded arteries by gentle rubbing off the intimal surface with a wooden stick.

[3] = tested on: APJ; conditions: zebrafish studies; cited from earlier work
Source text: ELA deficiency leads to severe defects in heart development and lymphogenesis. ...

[4] = tested on: human saphenous vein; conditions: cited from earlier work
[5] = tested on: mouse heart failure model of coronary artery ligation; conditions: cited from earlier work
Source text: Apelin was considered the only endogenous ligand for APJ since isolation of the apelin peptide. Apelin is expressed in multiple tissues including adipose tissue, heart, vasculature, brain and kidney, whereas APJ is more broadly expressed in tissues such as heart, blood vessels and adipose tissue. […] At the receptor level, APJ is a GPCR coupled to Gi and/or Gq[15][16]. Activation of APJ results in biochemical responses i ... || Recently, the therapeutic potential of apelin as a reagent for heart failure has been increasingly recognized.

[6] = tested on: vascular tone; blood pressure; conditions: cited from earlier work
Procedure: The aortic rings were induced to contraction with vasoconstrictor U46619 (final concentration, 30 nM).

## CSCC[C@H](NC(=O)[C@@H](NC(=O)[C@H](CC(C)C)NC(=O)[C@H](CC(N)=O)NC(=O)[C@@H](NC(=O)[C@@H]1CCCN1C(=O)[C@H](CCCNC(=N)N)NC(=O)[C@@H](N)CCC(N)=O)C(C)C)[C@@H](C)O)C(=O)N[C@@H](CCCNC(=N)N)C(=O)N[C@@H](CCCNC(=N)N)C(=O)N[C@@H](CCCCN)C(=O)N[C@@H](CC(C)C)C(=O)N[C@@H](CCCNC(=N)N)C(=O)N[C@@H](CCCCN)C(=O)N[C@@H](Cc1c[nH]cn1)C(=O)N[C@@H](CC(N)=O)C(=O)N[C@H]1CSSC[C@@H](C(=O)N[C@@H](CCSC)C(=O)N2CCC[C@H]2C(=O)N[C@@H](CC(C)C)C(=O)N[C@@H](Cc2c[nH]cn2)C(=O)N[C@@H](CO)C(=O)N[C@@H](CCCNC(=N)N)C(=O)N[C@H](C(=O)N2CCC[C@H]2C(=O)N[C@@H](Cc2ccccc2)C(=O)N2CCC[C@H]2C(=O)O)C(C)C)NC(=O)[C@H](CCCNC(=N)N)NC(=O)[C@H](CCCNC(=N)N)NC(=O)[C@H](CCC(N)=O)NC(=O)[C@H](CC(C)C)NC1=O [ELA]
[1]; ELA 0.1 μM, APJ siRNA
  tubular formation, APJ-knock down HUVECs: not effective in inducing the formation of tubular structures
[1]; ELA 0.1 μM
  increase in number of branch points: 71.9%
[1]; ELA 0.1 μM, compared to empty vector control cells with ELA
  increase in tubular formation, APJ-overexpressing HUVECs: 63.3%
[1]; ELA 0.1 μM, compared to empty vector control cells without ELA
  increase in tubular formation, APJ-overexpressing HUVECs: 190.2%
[1]; ELA 0.5 μM
  increase in number of branch points: 222.8%
[1]; ELA 1 μM
  increase in number of branch points: 266.7%
[2]; 1 mM L-NAME for 30 min, then U46619, followed by ELA
  relaxation with L-NAME pretreatment: No significant difference was observed between the L-NAME-treated and non-treated vessels
[2]; U46619 30 nM precontraction, ELA 10^−9 to 10^−6 M cumulative, n = 5–10
  maximum relaxation, endothelium-intact vessels: 73.7%
[2]; endothelium-denuded, ELA at corresponding concentrations, n = 5–10
  decrease in relaxation in denuded vs intact vessels: ~ 20%
[3]
  binding and activation of APJ: binds and activates APJ

## CC(=O)OCC[N+](C)(C)C [acetylcholine]
[2]; endothelium-denuded or L-NAME-treated arteries
  relaxation by acetylcholine (control of endothelium removal and NOS inhibition): inability of acetylcholine to relax the arteries

## apelin
[4]
  vasoconstriction: vasoconstriction is also noted in human saphenous vein
[5]; mouse heart failure model of coronary artery ligation
  cardiac protection, contractility, infarction size, stem cell mobilization: have cardiac-protective effect and can increase heart contractility, reduce infarction size and promote cardiac stem cell mobilization to the infarct area
[5]; various animal models, infusion
  cardioprotective effect: appears to have cardioprotective effect in various animal models
[6]
  vascular tone: relax vascular tone
  vasodilatory effect: a vasodilatory effect of apelin is reported
[6]; no ref number printed at this statement
  blood pressure: lower blood pressure
[6]; vessels denuded of endothelium
  vasoconstriction in denuded vessels: vasoconstriction is also noted

## apelin-13
[2]; apelin-13, denuded vs intact vessels, n = 5–10
  reduction of relaxing effect by removal of endothelium: 48%
[2]; apelin-13, endothelium-denuded, U46619 30 nM precontraction, n = 5–10
  relaxation, denuded vessels: 31%
[2]; apelin-13 at 10^−6 M, U46619 30 nM precontraction, n = 5–10
  maximum relaxation, endothelium-intact vessels: 79%
